{"source": "paper PMC9516332", "about": "(Frontiers in Oncology, 2022)", "tested_on": "134 cancer cell lines", "assay": "Cell viability assay (ATPlite, 72 hours), IC50 on cancer cell line panel", "note": "Read-outs that look alike come from different tables or passages of the source.", "data": [{"smiles": "COC(=O)N[C@@H](C)CNc1nccc(-c2cn(C(C)C)nc2-c2cc(Cl)cc(NS(C)(=O)=O)c2F)n1", "note": "[encorafenib]", "values": [{"measurement": "IC50", "setting": "Homo sapiens, MOLT-4, read-out: IC50 in cell proliferation assay, MOLT-4 cell line", "value": 1.67, "unit": "µM"}, {"measurement": "IC50", "setting": "Homo sapiens, MV4-11, read-out: IC50 in cell proliferation assay, MV4-11 cell line (FLT3 ITD)", "value": 2.28, "unit": "µM"}, {"measurement": "IC50", "setting": "Homo sapiens, MeWo, read-out: IC50 in cell proliferation assay, MeWo cell line", "value": 1, "unit": "µM"}, {"measurement": "IC50", "setting": "Homo sapiens, NCCIT, read-out: IC50 in cell proliferation assay, NCC-IT cell line", "value": 1.04, "unit": "µM"}, {"measurement": "IC50", "setting": "Homo sapiens, NCI-H82, read-out: IC50 in cell proliferation assay, cell line NCI-H82", "value": 1.07, "unit": "µM"}, {"measurement": "IC50", "setting": "Homo sapiens, NCI-H460, read-out: IC50 in cell proliferation assay, NCI-H460 cell line", "value": 1.16, "unit": "µM"}, {"measurement": "IC50", "setting": "Homo sapiens, NCI-H661, read-out: IC50 in cell proliferation assay, NCI-H661 cell line", "value": 0.821, "unit": "µM"}, {"measurement": "IC50", "setting": "Homo sapiens, NCI-H716, read-out: IC50 in cell proliferation assay, cell line NCI-H716 (FGFR2-COL14A1)", "value": 9.56, "unit": "µM"}, {"measurement": "IC50", "setting": "Homo sapiens, NCI-H1650, read-out: IC50 in cell proliferation assay, NCI-H1650 cell line (EGFR exon19del)", "value": "> 31.6", "unit": "µM"}, {"measurement": "IC50", "setting": "Homo sapiens, NCI-H1975, read-out: IC50 in cell proliferation assay, NCI-H1975 cell line (EGFR p.L858R + p.T790M)", "value": 1.44, "unit": "µM"}, {"measurement": "IC50", "setting": "Homo sapiens, NCI-H2228, read-out: IC50 in cell proliferation assay, NCI-H2228 cell line (EML4-ALK)", "value": 2.3, "unit": "µM"}, {"measurement": "IC50", "setting": "Homo sapiens, OVCAR-3, read-out: IC50 in cell proliferation assay, cell line OVCAR-3", "value": 0.695, "unit": "µM"}, {"measurement": "IC50", "setting": "Homo sapiens, PFSK-1, read-out: IC50 in cell proliferation assay, cell line PFSK-1", "value": 1, "unit": "µM"}, {"measurement": "IC50", "setting": "Homo sapiens, RL95-2, read-out: IC50 in cell proliferation assay, cell line RL95-2 (EGFR p.A289V)", "value": 0.924, "unit": "µM"}, {"measurement": "IC50", "setting": "Homo sapiens, RPMI-7951, read-out: IC50 in cell proliferation assay, cell line RPMI-7951 (BRAF p.V600E)", "value": 0.013, "unit": "µM"}, {"measurement": "IC50", "setting": "Homo sapiens, RS4-11, read-out: IC50 in cell proliferation assay, cell line RS4;11", "value": 0.925, "unit": "µM"}, {"measurement": "IC50", "setting": "Homo sapiens, Rec1, read-out: IC50 in cell proliferation assay, cell line REC-1", "value": 8.53, "unit": "µM"}, {"measurement": "IC50", "setting": "Homo sapiens, SHP77, read-out: IC50 in cell proliferation assay, cell line SHP-77", "value": "> 31.6", "unit": "µM"}, {"measurement": "IC50", "setting": "Homo sapiens, SK-BR-3, read-out: IC50 in cell proliferation assay, cell line SK-BR-3 (ERBB2 amplification)", "value": "> 31.6", "unit": "µM"}, {"measurement": "IC50", "setting": "Homo sapiens, SK-N-AS, read-out: IC50 in cell proliferation assay, cell line SK-N-AS", "value": 1.11, "unit": "µM"}, {"measurement": "IC50", "setting": "Homo sapiens, SK-N-FI, read-out: IC50 in cell proliferation assay, cell line SK-N-FI", "value": 3.29, "unit": "µM"}, {"measurement": "IC50", "setting": "Homo sapiens, SK-N-MC, read-out: IC50 in cell proliferation assay, cell line SK-N-MC", "value": 0.976, "unit": "µM"}, {"measurement": "IC50", "setting": "Homo sapiens, SK-N-SH, read-out: IC50 in cell proliferation assay, cell line SK-N-SH (ALK p.F1174L)", "value": 1.11, "unit": "µM"}, {"measurement": "IC50", "setting": "Homo sapiens, SNU-5, read-out: IC50 in cell proliferation assay, cell line SNU-5 (MET amplification)", "value": 7.36, "unit": "µM"}, {"measurement": "IC50", "setting": "Homo sapiens, SNU-16, read-out: IC50 in cell proliferation assay, cell line SNU-16 (FGFR2 amplification)", "value": 1.75, "unit": "µM"}, {"measurement": "IC50", "setting": "Homo sapiens, SNU-C2B, read-out: IC50 in cell proliferation assay, cell line SNU-C2B (EGFR p.R165Q)", "value": 9.59, "unit": "µM"}, {"measurement": "IC50", "setting": "Homo sapiens, SU-DHL-1, read-out: IC50 in cell proliferation assay, cell line SU-DHL-1 (NPM1-ALK)", "value": 2.15, "unit": "µM"}, {"measurement": "IC50", "setting": "Homo sapiens, SU-DHL-6, read-out: IC50 in cell proliferation assay, cell line SU-DHL-6", "value": 5.81, "unit": "µM"}, {"measurement": "IC50", "setting": "Homo sapiens, SUP-T1, read-out: IC50 in cell proliferation assay, cell line SUP-T1", "value": "> 31.6", "unit": "µM"}, {"measurement": "IC50", "setting": "Homo sapiens, SW48, read-out: IC50 in cell proliferation assay, cell line SW48 (EGFR p.G719S)", "value": 2.23, "unit": "µM"}, {"measurement": "IC50", "setting": "Homo sapiens, SW480, read-out: IC50 in cell proliferation assay, cell line SW480", "value": 1.22, "unit": "µM"}, {"measurement": "IC50", "setting": "Homo sapiens, SW626, read-out: IC50 in cell proliferation assay, cell line SW626", "value": 2.44, "unit": "µM"}, {"measurement": "IC50", "setting": "Homo sapiens, SW780, read-out: IC50 in cell proliferation assay, cell line SW780 (FGFR3-BAIAP2L1)", "value": 19.8, "unit": "µM"}, {"measurement": "IC50", "setting": "Homo sapiens, SW837, read-out: IC50 in cell proliferation assay, cell line SW837", "value": "> 31.6", "unit": "µM"}, {"measurement": "IC50", "setting": "Homo sapiens, SW872, read-out: IC50 in cell proliferation assay, cell line SW872 (BRAF p.V600E)", "value": 0.007, "unit": "µM"}, {"measurement": "IC50", "setting": "Homo sapiens, SW900, read-out: IC50 in cell proliferation assay, cell line SW900", "value": 1.39, "unit": "µM"}, {"measurement": "IC50", "setting": "Homo sapiens, SW948, read-out: IC50 in cell proliferation assay, cell line SW948", "value": 3.23, "unit": "µM"}, {"measurement": "IC50", "setting": "Homo sapiens, SW982, read-out: IC50 in cell proliferation assay, cell line SW982 (BRAF p.V600E)", "value": 0.549, "unit": "µM"}, {"measurement": "IC50", "setting": "Homo sapiens, SW-620, read-out: IC50 in cell proliferation assay, cell line SW620", "value": 1.81, "unit": "µM"}, {"measurement": "IC50", "setting": "Homo sapiens, T98G, read-out: IC50 in cell proliferation assay, cell line T98G", "value": 1.67, "unit": "µM"}, {"measurement": "IC50", "setting": "Homo sapiens, TCC-SUP, read-out: IC50 in cell proliferation assay, cell line TCCSUP", "value": 0.74, "unit": "µM"}, {"measurement": "IC50", "setting": "Homo sapiens, THP-1, read-out: IC50 in cell proliferation assay, cell line THP-1", "value": 2.46, "unit": "µM"}, {"measurement": "IC50", "setting": "Homo sapiens, U2OS, read-out: IC50 in cell proliferation assay, cell line U2OS", "value": 1.46, "unit": "µM"}, {"measurement": "IC50", "setting": "Homo sapiens, U-87 MG, read-out: IC50 in cell proliferation assay, cell line U-87MG ATCC", "value": 1.05, "unit": "µM"}, {"measurement": "IC50", "setting": "Homo sapiens, U-118-MG, read-out: IC50 in cell proliferation assay, cell line U-118MG", "value": 1.41, "unit": "µM"}, {"measurement": "IC50", "setting": "Homo sapiens, UMUC3, read-out: IC50 in cell proliferation assay, cell line UM-UC-3", "value": 0.993, "unit": "µM"}, {"measurement": "IC50", "setting": "Hs766T, read-out: IC50 in cell proliferation assay, Hs 766T cell line", "value": 1.91, "unit": "µM"}, {"measurement": "IC50", "setting": "L-82, read-out: IC50 in cell proliferation assay, L-82 cell line (NPM1-ALK)", "value": 8.75, "unit": "µM"}, {"measurement": "IC50", "setting": "Rh30, read-out: IC50 in cell proliferation assay, cell line Rh30", "value": 1.08, "unit": "µM"}, {"measurement": "IC50", "setting": "read-out: IC50 in cell proliferation assay, 11-18 cell line (EGFR p.L858R)", "value": "> 31.6", "unit": "µM"}, {"measurement": "IC50", "setting": "read-out: IC50 in cell proliferation assay, Hs 852.T cell line", "value": 3.37, "unit": "µM"}, {"measurement": "IC50", "setting": "read-out: IC50 in cell proliferation assay, JAR cell line", "value": 0.419, "unit": "µM"}, {"measurement": "IC50", "setting": "read-out: IC50 in cell proliferation assay, cell line 5637", "value": 0.586, "unit": "µM"}, {"measurement": "IC50", "setting": "read-out: IC50 in cell proliferation assay, cell line A-388", "value": 2, "unit": "µM"}, {"measurement": "IC50", "setting": "read-out: IC50 in cell proliferation assay, cell line DB", "value": 1.21, "unit": "µM"}, {"measurement": "IC50", "setting": "read-out: IC50 in cell proliferation assay, cell line DEL (NPM1-ALK)", "value": 6.42, "unit": "µM"}, {"measurement": "IC50", "setting": "read-out: IC50 in cell proliferation assay, cell line ES-2 (BRAF p.V600E)", "value": 0.1, "unit": "µM"}, {"measurement": "IC50", "setting": "read-out: IC50 in cell proliferation assay, cell line PA-1", "value": 0.841, "unit": "µM"}, {"measurement": "IC50", "setting": "read-out: IC50 in cell proliferation assay, cell line PC-3", "value": 1.37, "unit": "µM"}, {"measurement": "IC50", "setting": "read-out: IC50 in cell proliferation assay, cell line RD", "value": 1.63, "unit": "µM"}, {"measurement": "IC50", "setting": "read-out: IC50 in cell proliferation assay, cell line RKO (BRAF p.V600E)", "value": 0.244, "unit": "µM"}, {"measurement": "IC50", "setting": "read-out: IC50 in cell proliferation assay, cell line RL", "value": 29.2, "unit": "µM"}, {"measurement": "IC50", "setting": "read-out: IC50 in cell proliferation assay, cell line RT-4 (FGFR3-TACC3)", "value": 3.77, "unit": "µM"}, {"measurement": "IC50", "setting": "read-out: IC50 in cell proliferation assay, cell line SR (NPM1-ALK)", "value": 0.921, "unit": "µM"}, {"measurement": "IC50", "setting": "read-out: IC50 in cell proliferation assay, cell line T24", "value": 1.05, "unit": "µM"}, {"measurement": "IC50", "setting": "read-out: IC50 in cell proliferation assay, cell line TT (RET p.C634W)", "value": 5.09, "unit": "µM"}, {"measurement": "IC50", "setting": "read-out: IC50 in cell proliferation assay, cell line VA-ES-BJ", "value": 1.13, "unit": "µM"}]}]}
